Results from publication PMC2397535 (Breast Cancer Research : BCR, 2008).
Read-outs that look alike come from different tables or passages of the source. Marks after values point to notes of the source that are not given here.

Legend:
[1] = tolerability (body weight, survival) in BT-474 tumor-bearing nude mice; assay type: in vivo
Experimental: (§1) Invasive procedures were performed under Forene anesthesia. […] The animals were fed food and water ad libitum.
(§2) Tumor growth and body weights were monitored at regular intervals. The xenograft tumor sizes were measured manually with calipers, and the tumor volume was estimated using the formula (w × l × h × π/6), where width (w), height (h), and length (l) are the three largest diameters.
(§3) When applicable, results are presented as mean ± standard error of the mean. Tumor and body weight data were analyzed by analysis of variance (ANOVA) with the post hoc Dunnett test for comparison of treatment versus control groups. The post hoc Tukey test was used for intragroup comparison. Statistical analysis was performed using GraphPad Prism 5 (GraphPad Software, Inc., San Diego, CA, USA). As a measure of efficacy, the %T/C value is calculated at the end of the experiment according to (Δtumor volumetreated/Δtumor volumecontrol) × 100, where Δtumor volumes represent the mean tumor volume on the evaluation day minus the mean tumor volume at the start of the experiment.

HSP70 = HSP70 induction in BT-474 xenografts (immunohistochemistry); assay type: in vivo, mice; details: single 50 mg/kg dose
Experimental: Formalin-fixed paraffin-embedded tissue sections were stained using the Ventana Discovery System (Ventana Medical Systems, Inc., Tucson, AZ, USA). Deparaffinization of tissue sections and heat-induced epitope retrieval using Standard Cell Conditioning Solution 1 (Ventana Medical Systems, Inc.) were performed directly on the System. A rabbit anti-human ERBB2 (HER2) monoclonal antibody (Lab Vision Corporation, Fremont, CA, USA) and a mouse anti-human HSP70 (Assay Designs, Inc.) were prepared in Dako diluent (Dako North America, Inc., Carpinteria, CA, USA) and used at concentrations of 2 ug/mL for 32 minutes and 10 ug/mL for 60 minutes, respectively. For HSP70 staining, slides were incubated with a biotin-labeled anti-mouse IgG1 (Research Diagnostics, Inc., now known as Fitzgerald Industries International, Concord, MA, USA) at a concentration of 1.25 ug/mL diluted in M.O.M. (Mouse-on-Mouse) (Vector Laboratories, Peterborough, UK). Detection using a 3,3'-diaminobenzadine reaction was performed on the section by using the Ventana OmniMAP DAB for the ERBB2 antibody and the Ventana DAB Map reagent for the HSP70 antibody (Ventana Medical Systems, Inc.). Each tissue section was subsequently counterstained with hematoxylin. To ensure antibody specificity, consecutive tissue sections were incubated with normal isotype-matched immunoglobulins (rabbit IgG; Jackson ImmunoResearch Laboratories, Inc., West Grove, PA, USA, and mouse IgG1; Lab Vision Corporation) used at concentrations equivalent to Her2 and HSP70 antibodies. Stained tissue sections were quantified using the Aperio Digital Pathology System (Aperio Technologies, Inc., Vista, CA, USA).
as §1

SkBr3 = assay: antiproliferative effect (GI50), breast cancer cell line; assay type: cell-based; details: Homo sapiens, SK-BR-3
MAXF 583 = assay: clonogenic (soft agar colony formation) assay, primary breast tumor; assay type: cell-based, human
MAXF 1322 = assay: as above; assay type: cell-based, human
MDA-MB-231 = assay: antiproliferative effect (GI50), breast cancer cell line; assay type: cell-based; details: Homo sapiens
[2] = system: human breast cancer explants; assay: clonogenic assay, six human breast cancer explants (summary values); assay type: cell-based
MAXF 401 = assay: clonogenic (soft agar colony formation) assay, primary breast tumor; assay type: cell-based, human
[3] = system: ERBB2, AKT, phospho-AKT in BT-474 cells; assay: client protein levels in BT-474 cells (Western blot); assay type: cell-based, human
Experimental: (§4) To assess total levels of AKT, phosphorylated AKT, β-tubulin, and ERBB2 in the cell extracts, 20 to 30 μg of total protein was resolved by the appropriate-percentage SDS-PAGE. The following antibodies were used for immunoblotting: anti-AKT (cat. no. 9272, rabbit polyclonal; Cell Signaling Technology, Inc.), anti-phospho-AKT (Ser473) (cat. no. 9271, rabbit polyclonal; Cell Signaling Technology, Inc.), anti-β-tubulin (cat. no. T 4026, mouse monoclonal, clone Tub2.1; Sigma-Aldrich, St. Louis, MO, USA), and anti-ERBB2 (cat. no. 28-0004, rabbit polyclonal; Zymed Laboratories Inc., now part of Invitrogen Corporation, Carlsbad, CA, USA). Bound antibodies on PVDF immunoblots were detected by Amersham ECL (Amersham, now part of GE Healthcare, Little Chalfont, Buckinghamshire, UK) or infrared fluorescence detection (LI-COR Biosciences, Lincoln, NE, USA).

phospho-AKT (Ser473) = assay: AKT phosphorylation in BT-474 xenografts (Western blot); assay type: in vivo, mice
Experimental: as §4, §1

MDA-MB-157 = assay: antiproliferative effect (GI50), breast cancer cell line; assay type: cell-based; details: Homo sapiens
MDA-MB-468 = assay: as above; assay type: cell-based; details: Homo sapiens
MAXF 1162 = assay: clonogenic (soft agar colony formation) assay, primary breast tumor; assay type: cell-based, human
[4] = system: BT-474 breast cancer xenograft; assay: antitumor effect in BT-474 breast cancer xenograft model; assay type: in vivo, mice; details: for T/C / Tumor volume change: day 20
Experimental: as §1, §2, §3

MCF-7 = assay: antiproliferative effect (GI50), breast cancer cell line; assay type: cell-based; details: Homo sapiens, MCF7
[5] = system: panel of human breast cancer cell lines; assay: antiproliferative effect, panel of seven breast cancer cell lines (summary values); assay type: cell-based
MAXF 1384 = assay: clonogenic (soft agar colony formation) assay, primary breast tumor; assay type: cell-based, human
BT-474 = assay: antiproliferative effect (GI50), breast cancer cell line; assay type: cell-based; details: Homo sapiens

CCNC(=O)c1noc(-c2cc(C(C)C)c(O)cc2O)c1-c1ccc(CN2CCOCC2)cc1 [NVP-AUY922]
body weights compared with vehicle ([1]; single i.v. administration, 17 or 25 mg/kg): did not affect body weights | body weight ([1]; three times per week i.v., all dose levels (10, 30, 50 mg/kg)): significant body weight loss | HSP70 staining intensity, recovery (HSP70): gradually returned to baseline over one week | time point of peak HSP70 staining intensity (HSP70): 24 h | HSP70 staining intensity (HSP70; 6 hours after administration): strongly increased HSP70 staining | GI50 (SkBr3): 3.3 ± 0.9 nM | IC70 (colony formation) (MAXF 583): 569 nM | IC50 (MAXF 583; Homo sapiens): 333 nM | IC70 (colony formation) (MAXF 1322): 48 nM | IC50 (MAXF 1322; Homo sapiens): 29 nM | GI50 (MDA-MB-231): 7 ± 1.7 nM | GI50 ([2]; Homo sapiens, one highly resistant tumor explant, highest concentration evaluated, read-out: GI50): > 10000 nM | average GI70 ([2]; five out of the six human breast cancer explants): 379 nM | GI50 ([2]; five out of the six human breast cancer explants, read-out: average GI50): 191 nM | IC70 (colony formation) (MAXF 401): 295 nM | IC50 (MAXF 401; Homo sapiens, MAXF401): 78 nM | concentration required for significant reduction of protein AKT levels [3]: around 1 μM | phospho-AKT levels ([3]; 50 nM): decrease in the levels of phospho-AKT | total ERBB2 levels ([3]; 50 nM): decrease in total ERBB2 levels | phospho-AKT levels (phospho-AKT (Ser473); single dose 30 mg/kg i.v.): reductions in phospho-AKT levels | phospho-AKT levels (phospho-AKT (Ser473); single i.v. dose 25 mg/kg, tumors dissected 6 hours later): reduction in phospho-AKT levels | GI50 (MDA-MB-157): 126 ± 37 nM | GI50 (MDA-MB-468): 6.3 ± 2.6 nM | IC70 (colony formation) (MAXF 1162): 505 nM | IC50 (MAXF 1162; Homo sapiens): 304 nM | T/C ([4]; 8.3 mg/kg once per week): 95 percentage | Tumor volume change ([4]; 8.3 mg/kg once per week): 252 ± 73 cubic millimeters | T/C ([4]; 17 mg/kg once per week): 72 percentage | Tumor volume change ([4]; 17 mg/kg once per week): 191 ± 61 cubic millimeters | T/C ([4]; 25 mg/kg once per week): 12 percentage | Tumor volume change ([4]; 25 mg/kg once per week): 32 ± 15^a cubic millimeters | T/C ([4]; 41 mg/kg once per week): 3 percentage | Tumor volume change ([4]; 41 mg/kg once per week): 9 ± 13^a cubic millimeters | T/C ([4]; 58 mg/kg once per week): 8 percentage | Tumor volume change ([4]; 58 mg/kg once per week): 22 ± 26^a cubic millimeters | tumor response ([4]; once per week i.v., 8.3 to 17 mg/kg): did not result in a significant effect on tumor growth | tumor response ([4]; once per week i.v., 25 to 58 mg/kg): highly efficacious | tumor growth ([4]; single i.v. dose 17 mg/kg): indication of retarded tumor growth | time without significant tumor growth after administration ([4]; single i.v. dose 25 mg/kg): about 1 week | tumor size at end corresponds to control tumor size this much earlier ([4]; single i.v. dose 25 mg/kg): approximately 10 days | tumor size versus control group at the end of the experiment ([4]; single i.v. dose 25 mg/kg, 21 days, P < 0.05): statistically significantly smaller | tumor response ([4]; three times per week i.v., 10 mg/kg): did not result in a significant effect on tumor growth | tumor response ([4]; three times per week i.v., 30 and 50 mg/kg): tumor regression | GI50 (MCF-7): 8.8 ± 1.8 nM | GI50 ([5]; seven cell lines, read-out: GI50 values, range over human breast cancer cell lines): 3 to 126 nM | GI50 ([5]; six of the seven breast cancer cell lines, read-out: average GI50 value): 5.4 nM | IC70 (colony formation) (MAXF 1384): 477 nM | IC50 (MAXF 1384; Homo sapiens): 209 nM | GI50 (BT-474): 3.1 ± 1.4 nM
